In patent publication US20250034525A1, “CONSTRUCTION METHOD, DETECTION METHOD, AND APPLICATION OF IN VITRO TISSUE MODEL OF DIABETIC CARDIOMYOPATHY” (HUBEI UNIVERSITY, priority 2023, published 2025):

Key:
Format in all cases: cell-based
[1] = system: human engineered heart tissue (hEHT); assay: Contractility detection of human EHT by mechanical assay (force transducer, stretch)
Procedure: 1) After EHT was constructed and cultured for 5-7 days (the medium was changed every other day), the EHTs had good structure and beat regularly.
(§1) 2) EHT was stimulated by 500 μM PA, and for the control group, it contained the same concentration of BSA and ethanol. After 24 hours and 72 hours of stimulation, the supernatant and tissue samples were collected for functional detection.
3) A contractility detection system by mechanical assay: the mechanical characteristics of the bundle were detected by using a mechanical measurement platform, in which the bath, platinum electrode, tissue fixation device, and assembly form were self-designed, and other components such as sensors, amplifiers, digital-to-analog converters, data acquisition software, stepper motors, supporting components, temperature controllers and stimulators were all commercially available and assembled in-house after procurement.
4) Experimental steps for contractility detection by mechanical assay: the instrument was preheated for 30 minutes in advance, and the sensor was calibrated with precision weights by gravity. The Tyrode's Solution containing 1.8 mM CaCl2 was put into a 37° C. water bath for preheating in advance, and the platform was set to 37° C. The bundle was dipped into the Tyrode's Solution, and both ends were fixed with specimen needles, wherein one of which was fixed on the sensor and the other was fixed on the bath. Data were collected after the microstructure was balanced for 2 min. Start the electrical stimulator, and stimulate the bundle electrically at a voltage of 10 V and frequencies of 1, 1.5, 2, 2.5, and 3 Hz. Start the stepper motor to control software to start the programmed stretching program, and stretch the bundle from the initial state (8 mm) by 12% (0.96 mm) of the initial length, stretching 2% (0.16 mm) each time, collecting data for 40 s in each stretching state, and collecting contraction force data under different stretching states. After stretching, end the collection and save the data. The collected data were analyzed by the customized program MATLAB software.

[2] = system: human engineered heart tissue (hEHT); assay: Optical mapping detection of human EHT electrical conduction
Procedure: 1) The electrode was made of 0.2 mm platinum wire, and the conductive function was tested using a sealed membrane nickel wire interface.
2) Fluo-4/RHOD2 was dissolved in DMSO (dimethyl sulfoxide) with a volume ratio of 1:1 to prepare a stock solution, which was then added into EHT medium at a ratio of 1:1,000 (working solution), incubated at 37° C. for 20 min, followed by washing with DPBS twice, then incubated with serum-free EHT medium at 37° C.
3) Preparation of medium for imaging: 10 μM Blebbistatin was added into the Tyrode's Solution or serum-free EHT medium in a volume ratio of 1:2,000 for imaging. The medium for imaging was added into a PDMS dish, the EHT was fixed on the dish with a specimen needle, put in a 41° C. temperature control chamber, and the electrode was put on one side of the EHT; an optical mapping camera was used for formal imaging, and the preview speed of 600 ms was recorded in 10 seconds, then recording was conducted in the cases where there was no electrical stimulation and 1 Hz electrical stimulation, respectively, in which the laser intensity was MAX: 12-16%.
The collected data were analyzed by optical mapping software.

[3] = system: human pluripotent stem cell-derived cardiomyocytes; assay: CCK8 survival rate of human pluripotent stem cell-derived cardiomyocytes (planar monolayer); details: 250 μM PA, 24 h, versus 30 mM Glucose and 10 nM ET-1 + glucocorticoid, single or combined factors
Procedure: FIG. 2A-FIG. 2B show the results of confirming the effects of different metabolic factors on survival rate of the cardiomyocytes in the present disclosure.
3) Diluting PA with a final concentration of 250 μM, 500 μM, and 750 μM using cells or EHT medium to stimulate human-derived cardiomyocytes or EHTs. An equivalent amount of ethanol was dissolved in 10% BSA, which was diluted with medium finally as a control solution.
In the present disclosure, firstly, differentiated human cardiomyocytes were paved into planar monolayer cells, and then the cell survival rate was detected by adding 30 mM Glucose, 250 μM PA, 10 nM endothelin (ET-1) and […] glucocorticoid to the medium as single or combined factor(s), respectively, it is identified that the most obvious diabetic stimulus factor for cardiomyocyte injury was PA (FIG. 2A-FIG. 2B). Furthermore, different concentrations of PA were used to stimulate cardiomyocytes, and the concentration and time-dependent effects were evaluated (FIG. 3A). The injury effect of PA was determined through myocardial injury marker LDH (FIG. 3B).

[4] = system: human engineered heart tissue (hEHT); assay: LDH myocardial injury marker in hEHT model; details: 500 μM PA, 72 h stimulation
Procedure: In the present disclosure, an in vitro tissue model of diabetic cardiomyopathy obtained by the above construction method is also provided. According to the disclosure, it is identified that a diabetic cardiomyopathy tissue model is generated with myocardial contractility that ranges from unchanged (1 day) to decreased (3 days), concomitant with the appearance of a myocardial fibrosis phenotype by dynamic stimulation of hEHT with 500 μM PA.
as §1

[5] = system: human engineered heart tissue (hEHT); assay: H&E staining and immunofluorescence staining of human EHT (fibrosis)
Procedure: For the morphological and histological observation after Bundle stimulation, the tissue was first treated by conventional paraffin embedding methods, and then the tissue was stained by basic staining and immunofluorescence staining after slicing. The specific steps were as follows: • (1) Cleaning the bundle twice using DPBS without calcium and magnesium ions. • (2) Fixing the bundle with 4% PFA (Paraformaldehyde) at room temperature for 15 min. • (3) Placing the fixed bundle in a paraffin tissue embedding frame and rinsing it with running water for 2 h. • (4) The […] bundle was subjected to gradient dehydrating and wax dipping using a Dewaxer (Hisure Scientific Co., Ltd.) with a total of 12 cylinders under the following conditions: 70% ethanol for 1 h, 80% ethanol for 1 h, 80% ethanol for 0.5 h, 90% ethanol for 0.5 h, 90% ethanol for 0.5 h, 100% ethanol for 0.5 h, xylene for 0.5 h, xylene for 0.5 h, paraffin at 63° C. for 5 min, paraffin at 63° C. for 5 min and paraffin at 63° C. for 5 min. • (5) After the dehydrated Bundle was placed at the bottom of the iron frame molding tool with an appropriate size, the plastic embedding frame was placed on the iron frame molding tool, and then placed on the freezing platform. […] After adding the anti-fluorescence quencher dropwise, the coverslip was covered, and the slide was mounted with nail polish.

[6] = Empagliflozin added with 500 μM PA, 24 hours' stimulation

SMILES	number of abnormal diastolic peaks of PA-stimulated hEHT ([1]; Empagliflozin added with 500 μM PA, under stretch conditions)	APD80 of PA-stimulated human EHT [2, 6]	contraction amplitude of PA-stimulated human EHT [2, 6]	electric signal conduction velocity of PA-stimulated human EHT [2, 6]	cardiomyocyte survival rate (CCK8) [3]	LDH [4]	abnormal relaxation (diastolic) peak ([1]; 500 μM PA, 24 h stimulation)	myocardial relaxation time (diastolic duration) ([1]; 500 μM PA, 24 h stimulation)	positive contractility (contraction force) ([1]; 500 μM PA, 24 h stimulation)	abnormal peaks (diastolic) ([1]; 500 μM PA, 72 h stimulation)	inotropic force (contraction force) ([1]; 500 μM PA, 72 h stimulation)	relaxation time (diastolic duration) ([1]; 500 μM PA, 72 h stimulation)	APD50 ([2]; 500 μM PA, 6 h stimulation)	APD80 ([2]; 500 μM PA, 6 h stimulation)	contraction amplitude ([2]; 500 μM PA, 6 h stimulation)	electric signal conduction velocity ([2]; 500 μM PA, 6 h stimulation)	pathological changes and level of fibrosis inside human EHT ([5]; 24 hours after PA stimulation)	fibrosis inside the heart tissue ([5]; 72 hours after PA stimulation)
OC[C@H]1O[C@@H](c2ccc(Cl)c(Cc3ccc(O[C@H]4CCOC4)cc3)c2)[C@H](O)[C@@H](O)[C@@H]1O [Empagliflozin]	reduced number	improved	effectively recover	effectively recover	–	–	–	–	–	–	–	–	–	–	–	–	–	–
CCCCCCCCCCCCCCCC(=O)O [PA, palmitic acid]	–	–	–	–	lowest	increased significantly	abnormal relaxation peak	prolonged	did not affect	more frequent	significant decrease	more frequent prolongation	obviously increased	obviously increased	not decreased	not decreased	no obvious pathological changes and changes in the level of fibrosis	obvious fibrosis
